Measured values from patent US8609725B2, “Method of using beta-hydroxy-beta-methylbutyrate for reducing tumor growth rate” (Abbott Laboratories, priority 2004, dated 2013).

Assays:
[1] = system: proteasome; experiment: Functional proteasome 'chymotrypsin-like' enzyme activity in gastrocnemius muscle of MAC16 mice; assay type: in vivo, NMRI mice; conditions: HMB 0.25 g/kg, EPA 0.6 g/kg or combination, 3 days
Procedure: Functional proteasome activity was determined by measuring the ‘chymotrypsin-like’ enzyme activity, the predominant proteolytic activity of the β-subunits of the proteasome according to the method of Orino, E. et al. ATP-dependent reversible association of proteasomes with multiple protein components to form 26S complexes that degrade ubiquitinated proteins in human HL-60 cells. FEBS Lett., 284: 206-210, 1991. Muscles were rinsed with ice-cold PBS, minced and sonicated in 20 mM Tris. HCl, pH 7.5, 2 mM ATP, 5 mM MgCl2 and 1 mM DTT. The sonicate was then centrifuged for 10 min at 18,000 g, at 4° C. and the supernatant was used to determine ‘chymotrypsin-like’ enzyme activity by the release of aminomethyl coumarin (AMC) from the fluorogenic substrate succinyl-LLVY-AMC. Activity was measured in the absence and presence of the specific proteasome inhibitor lactacystin (10 μM). Only lactacystin suppressible activity was considered to be proteasome specific.

[2] = system: p42/44 MAPK (ERK1, ERK2); experiment: PIF-induced phosphorylation of ERK 1/2 (p42/44 MAPK) in murine myotubes; assay type: cell-based
Procedure: For Western blot analysis, cytosolic protein (2 to 5 μg) obtained for the above assay were resolved on 10% SDS-PAGE and transferred to 0.45 μm nitrocellulose membrane, which had been blocked with 5% Marvel in PBS, at 4° C. overnight. The primary antibodies were used at a dilution of 1:100 (anti-actin and PKCα); 1:500 (anti-ERK1 and 2); 1:1000 (anti-20S proteasome β-subunit and I-κBα); 1:1500 (anti-20S proteasome α-subunit) or 1:5000 (anti-p42), while the secondary antibodies were used at a dilution of 1:2000. Incubation was carried out for 2 h at room temperature and development was by ECL. Loading was quantitated by actin concentration.
The in vitro study described in Example III above also evaluated the effect of HMB on molecules that are key mediators in the pathway of inflammation. This experiment was conducted as described in Example III.

[3] = system: C2C12 myotubes; experiment: PIF-induced total protein degradation in C2C12 myotubes; assay type: cell-based, murine
Procedure: C2C12 myotubes were routinely passaged in DMEM supplemented with 10% FCS, glutamine and 1% penicillin-streptomycin under an atmosphere of 10% CO2 in air at 37 °C. Myotubes were formed by allowing confluent cultures to differentiate in DMEM containing 2% HS, with medium changes every 2 days.
PIF was purified from solid MAC16 tumors (Todorov, P. et al. Characterization of a cancer cachectic factor. Nature, 379: 739-742, 1996.) excised from mice with a weight loss of 20 to 25%. Tumors were homogenised in 10 mM Tris-HCl, pH 8.0, containing 0.5 mM phenylmethylsulfonyl fluoride, 0.5 mM EGTA and 1 mM dithiothreitol at a concentration of 5 ml/g tumor. […]
Myotubes in six-well multidishes were labeled with L-[2, 6^−3H] phenylalanine (0.67 mCi/mmole) for 24 h in 2 ml DMEM containing 2% HS. They were then washed three times in PBS followed by a 2 h incubation at 37° C. in DMEM without phenol red until no more radioactivity appeared in the supernatant. These myotubes were then further incubated for 24 h in the presence of PIF, with and without EPA or HMB, in fresh DMEM without phenol red, to prevent quenching of counts, and in the presence of 2 mM cold phenylalanine to prevent reincorporation of radioactivity. The amount of radioactivity released into the medium was expressed as a percentage of control cultures not exposed to PIF to determine total protein degradation.

[4] = system: 20S proteasome β-subunits; experiment: Western blotting of 20S proteasome β-subunits in gastrocnemius muscle of MAC16 mice; assay type: in vivo, NMRI mice
[5] = system: mice bearing the MAC16 tumor; experiment: Weight loss, food and water intake in mice bearing the MAC16 tumor; assay type: in vivo, NMRI mice; conditions: doses of HMB greater than 0.125 g/kg, p.o. by gavage daily
Source text: This study evaluates the effect of HMB, in comparison with EPA or combination, on weight loss induced by the MAC16 tumor and the mechanisms involved. […] Pure strain male NMRI mice (average weight 25 g) were obtained from our own inbred colony and were transplanted with fragments of the MAC16 tumor s.c. into the flank by means of a trochar, selecting from donor animals with established weight loss as described in Bibby, M. C. et al. Characterization of a transplantable adenocarcinoma of the mouse colon producing cachexia in recipient animals. J. Natl. Cancer Inst., 78: 539-546, 1987. Transplanted animals were fed a rat and mouse breeding diet (Special Diet Services, Witham, United Kingdom) and water ad libitum, and weight loss was evident 10-12 days after tumor implantation. Animals just prior to the development of weight loss were randomized to receive daily either EPA (in olive oil), HMB (in PBS) or the combination as described in the figure legends administered p.o. by gavage, while control animals received either olive oil or PBS. EPA (98% as free acid) was purchased from Biomol Research Laboratories Inc., PA, USA. HMB (as the calcium salt) was obtained from Abbott Laboratories, Columbus, Ohio, USA. All groups contained a minimum of 6 mice. Tumor volume, body weight and food and water intake were monitored daily. […]

## CC(C)(O)CC(=O)O [HMB, beta-hydroxy-beta-methylbutyric acid]
[1]
  functional proteasome activity ('chymotrypsin-like' enzyme activity): attenuated
[2]; 25 μM HMB
  attenuation of PIF-induced phosphorylation of p42/44: not HMB at 25 μM
[2]; 50 μM
  attenuation of PIF-induced phosphorylation of p42/44: completely attenuated
[3]; 25 μM HMB, at low, but not at high concentrations of PIF
  attenuation of PIF induced protein degradation: some attenuation
[3]; 50 μM, 24 h after addition of PIF
  attenuation of PIF induced protein degradation: equally effective
[4]; HMB 0.25 g/kg, EPA 0.6 g/kg or combination, 3 days
  expression of 20S proteasome β-subunits: attenuated
[4]; summary of Examples I-IV
  reduction of protein expression of 20S β-subunits: at least 50%
[5]
  weight loss: significant reduction in weight loss
